Measured values: US20090068143A1, “ORALLY EFFECTIVE C[…]” (priority 2005, published 2009)
Marks after values point to notes of the source that are not given here.

Experiments:
[1] = test system: 400 Gene Array; assay: Gene array analysis of spinal cords, MOG induced EAE; type: in vivo, mouse; conditions: out of the 400 genes tested
Procedure: In an additional study, the gene expression profiling was performed using a 400 Gene Array series kit of SuperArray Bioscience Corporation according to manufacturer protocol and RNA extracted from spinal cords of treated or untreated animals, as above described. The scanned data were converted to mRNA expression levels and analyzed using two softwares, ScanAlayze and GEArray Analyzer. […] The genes so identified will be further analyzed by real time RT-PCR at other time points during disease progression. It is interesting to note that the genes whose expression is altered in MOG induced EAE animals following treatment with compounds of the invention broadly speaking encode for proteins involved in the immune system, such as STAT proteins which are involved in signal transduction of several cytokines and growth factors, JAK kinases, β2-microglobulin, TNF-receptor superfamily, calmodulins, and cyclin-dependent kinases.

[2] = test system: MOG induced chronic progressive EAE; assay: MOG induced chronic-progressive EAE; conditions: for animals that reached a clinical score of 0 (fully recovered): 13 animals per group
[3] = test system: CB1; assay: Real-time RT-PCR gene expression in CNS of MOG induced EAE: CB1; type: in vivo, mouse; conditions: 40 mg/kg p.o., day 31; over naive animals, normalized to cyclophilin
Procedure: (§1) Total RNA is prepared using SV total RNA isolation system (Promega). The brains and spinal cords, which were removed on day 31 from five animals treated with vehicle (i.e. untreated) or 40 mg/kg p.o. of compound 18F (i.e. treated) in the MOG-induced EAE study, were homogenized in lysis buffer. The lysates were transferred to an RNA isolation column, treated with DNAse, washed and eluted according to kit instructions. RNA concentrations were determined using GeneQuant II (Pharmacia-Amersham). Complementary DNA (cDNA) was synthesized from total RNA using […] II reverse transcriptase (Life Technologies). […] Quantitative real-time RT-PCR included 1 μl of the cDNA, 300 nM of the appropriate forward and reverse primers (according to the gene monitored) and 7.5 μl of the reaction mix containing buffer, nucleotides, Taq polymerase and SYBER green (SYBER Green master mix, Applied Biosystems), in a total reaction volume of 15 μl. […] During each annealing step, the amount of the amplified product was measured by the fluorescence of the double strand DNA binding dye, SYBER Green. The cycle of threshold (CT), representing the PCR cycle at which an increase in fluorescence above a baseline signal can be first detected, was determined for each product. […] Results were expressed as fold increase of gene expression in treated or untreated animals above the naive animals. […]

[4] = test system: Taxol® induced neuropathic pain; assay: Taxol® induced neuropathic pain; type: in vivo, Sprague Dawley rats
Procedure: Male Sprague Dawley rats (average body weight 150-200 g, Harlan, Israel) were administered i.p. with 6 mg/kg Taxol® (Bristol Myers Squibb, USA) every other day for 9 days. On day 13, baseline pain threshold was measured. One hour later, the animals were administered with 5 ml/kg i.p. of vehicle (PB) only and pain threshold was re-established. After an additional hour animals were treated with various doses of compound 18F ranging from 0.5 mg/kg up to 10 mg/kg administered i.p. Morphine at 5 mg/kg i.p. and gabapentin at 100 mg/kg i.p served as positive controls. Each treatment group comprised at least eight animals. One hour post drug administration pain threshold was monitored using thermal and mechanical stimuli as previously described. At the end of the study, rats were euthanized with sodium pentobarbitone 100 mg/kg i.p. Sample rats were then transfused with saline and heparinized 4% formaldehyde solution. The L4-L5 area of the spinal cord and the sciatic nerve were taken for histopathology assessment.
The time latencies for thermal hyperalgesia, and force needed to induce pain of the different treatment groups are compared, using one way ANOVA (analysis of variance), followed by Duncan's post hoc test. A p<0.05 value was considered statistically significant and is indicated on the figure by an asterisk over the relevant treatment group.

[5] = test system: F4/80; assay: Real-time RT-PCR gene expression in CNS of MOG induced EAE: F4/80; type: in vivo, mouse; conditions: 40 mg/kg p.o., day 31; over naive animals
Procedure: as §1

[6] = test system: IFN-γ; assay: Real-time RT-PCR gene expression in CNS of MOG induced EAE: IFN-γ; type: in vivo, mouse; conditions: 40 mg/kg p.o., day 31, over naive animals
Procedure: as §1

CCCCCCC(C)(C)c1cc(O)c([C@H]2CC(=O)C3CC2C3(C)C)c(OC(=O)/C=C/C(=O)O)c1 (single isomer, unassigned; (-)) [Compound 18F, (−)-4-{4-[1,1-Dimethylheptyl]-2-fumarate-6-hydroxy-phenyl}-6,6-dimethyl-bicyclo[3.1.1]heptan-2-one]
genes down-regulated or up-regulated by more than 1.5 fold upon treatment [1]: twenty
reduction of clinical score, first peak day 14 to 25 ([2]; 20 mg/kg p.o. daily for 19 days from day 13): about 12%
animals that reached a clinical score of 0 (fully recovered) ([2]; 20 mg/kg p.o.): 8%
reduction of clinical score, first peak day 14 to 25 ([2]; 40 mg/kg p.o. daily for 19 days from day 13): 43%
animals that reached a clinical score of 0 (fully recovered) ([2]; 40 mg/kg p.o.): 23%
clinical score for about a week from day 36 ([2]; 60 mg/kg p.o.): about 0.2
reduction of clinical score as compared to control, week from day 36 ([2]; 60 mg/kg p.o.): 80%
reduction of clinical score, first peak day 14 to 25 ([2]; 60 mg/kg p.o. daily for 19 days from day 13): 44%
animals that reached a clinical score of 0 (fully recovered) ([2]; 60 mg/kg p.o.): 31%
clinical score below control at the end of the study ([2]; 60 mg/kg p.o., 20 days after treatment cessation): 30%
clinical score at the end of the study ([2]; 60 mg/kg p.o., 20 days after treatment cessation, control 0.95): 0.65
plateau level clinical score ([2]; 60 mg/kg p.o., control about 1.2): about 0.6
side effects ([2]; high doses p.o., first 10 minutes post administration, eliminated from day 4): Some minor and transient side effects were observed
day of first full recovery ([2]; highest dose (60 mg/kg p.o.), treatment from day 13): 16 days
day of first full recovery ([2]; intermediate dose (40 mg/kg p.o.)): 17 days
day of first full recovery ([2]; lowest dose (20 mg/kg p.o.)): 22 days
reduction of AUC as compared to control group ([2]; separate study, 40 mg/kg p.o.): 36%
AUC of clinical score ([2]; separate study, daily from day 13, 18F 40 mg/kg p.o., COP-1 25 mg/kg s.c., IFN-β 10,000 IU per mouse s.c., control 24.14): 15.47 units
mean group clinical score at the end of the study ([2]; separate study, daily from day 13, 18F 40 mg/kg p.o., COP-1 25 mg/kg s.c., control above 2.4): 1.25
Fold gene expression CB1, Brain, Treated [3]: 1 fold
Fold gene expression CB1, Spinal Cord, Treated [3]: 1 fold
effect on pain threshold ([4]; 10 mg/kg i.p., baseline 15 gm, untreated 5 gm): increased the pain threshold back to pre-Taxol® baseline
effect on pain threshold versus vehicle ([4]; 1, 5 and 10 mg/kg i.p.): statistically significant from the vehicle treated animals
Fold gene expression F4/80, Brain, Treated [5]: 1.5 fold
Fold gene expression F4/80, Spinal Cord, Treated [5]: 5.5 fold
Fold gene expression IFN-γ, Spinal Cord, Treated [6]: 3 fold
Fold gene expression IFN-γ, Brain, Treated ([6]; untreated −9): 1* fold
